This assay has as its target High affinity nerve growth factor receptor (Homo sapiens, UniProt P04629). Put plainly: In Vitro Kinase Activity Assay: Compounds to be tested were dissolved in 100% DMSO in a range of concentrations from 10^-8 to 10^-3 M including negative control (DMSO), then diluted with Kinase Buffer (50 mM HEPES, pH 7.5, 1 mM EGTA, 10 mM MgCl2, 0.01% Tween-20, and 2 mM DTT, added fresh) to 4x the final concentration. The final curve included 11 concentrations (10^-11 to 10^-5 M) plus negative ….

Data on one compound can be found in ChEMBL document CHEMBL3639188, “Tyrosine kinase inhibitors” (2014).

pIC50: −log10 of the molar value.

Sequence of High affinity nerve growth factor receptor (P04629 whole entry): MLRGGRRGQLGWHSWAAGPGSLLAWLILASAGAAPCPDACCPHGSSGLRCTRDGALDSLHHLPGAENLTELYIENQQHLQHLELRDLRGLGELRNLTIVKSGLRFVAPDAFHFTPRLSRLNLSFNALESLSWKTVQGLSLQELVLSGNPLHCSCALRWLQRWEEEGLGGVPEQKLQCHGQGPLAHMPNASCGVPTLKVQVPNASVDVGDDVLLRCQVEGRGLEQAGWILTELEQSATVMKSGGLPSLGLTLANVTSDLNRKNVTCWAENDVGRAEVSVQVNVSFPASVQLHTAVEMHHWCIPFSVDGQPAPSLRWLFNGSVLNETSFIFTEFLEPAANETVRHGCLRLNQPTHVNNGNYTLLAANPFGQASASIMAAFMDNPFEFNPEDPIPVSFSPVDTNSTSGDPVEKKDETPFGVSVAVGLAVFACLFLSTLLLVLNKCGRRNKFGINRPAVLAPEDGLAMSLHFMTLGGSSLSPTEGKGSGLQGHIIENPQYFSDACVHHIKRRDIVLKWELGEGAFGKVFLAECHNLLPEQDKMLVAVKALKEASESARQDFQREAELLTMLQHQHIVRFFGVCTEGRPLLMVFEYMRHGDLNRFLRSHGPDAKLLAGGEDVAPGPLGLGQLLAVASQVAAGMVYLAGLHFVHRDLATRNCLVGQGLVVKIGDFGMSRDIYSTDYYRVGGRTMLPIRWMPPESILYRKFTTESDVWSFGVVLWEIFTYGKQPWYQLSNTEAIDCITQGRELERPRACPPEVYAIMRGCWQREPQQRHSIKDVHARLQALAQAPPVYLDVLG

Broadly, the pIC50 is −log10 of the IC50, conventionally taken in molar units. Consider `CC(Cc1cc(F)ccc1F)Nc1cc[nH]c(=O)c1-c1nc2cc3c(cc2[nH]1)C(=O)N(C1CCN(C)CC1)C3=O` (stereo unspecified), for which the pIC50 was 8.20.
